These results are taken from patent US20180243260A1, “METHODS OF TREATING COGNITIVE AND BEHAVIORAL IMPAIRMENT IN DOWN SYNDROME AND ALZHEIMERS DISEASE PATIENTS” (AVANTI BIOSCIENCES INC., priority 2016, published 2018).

Each structure is given as a SMILES string. pIC50: −log10 of the molar value. Bounds are passed on as bounds.

One assay concerns the target T1, DYRK1A (Rattus norvegicus, UniProt Q63470).
T1 construct: 6x histidine tag (HT)
The experiment in a line: DYRK1A ELISA non-radioactive kinase assay. The format is biochemical. The following applies: HT-PRD substrate, 100 μM ATP, 30 min at 30° C. How it is done: Decant HT-PRD solution, wash the wells twice with Tris dilution buffer. Block each well with 150 μl BSA/PBST blocking buffer PBST (2% BSA in PBS with 0.25% Tween 20) for at least 1 hr at room temperature.
Decant the blocking solution and wash the wells 3-4 times with Tris dilution buffer. Perform DYRK1A phosphorylation in the well with 100 μl reaction buffer (25 mM HEPES, pH 7.4, 100 mM NaCl, 5 mM MgCl2, and 100 μM ATP) containing DYRK1A (eg. 5-10 ng purified HT-DYRK1A) and inhibitor, if necessary, for 30 min at 30° C. […] Use 80 μl of this mixture in the reaction will give final ATP concentration of 100 μM. ATP concentrations may be adjusted if necessary. • 2. Add 10 μl inhibitor. If the inhibitor is dissolved in DMSO, shake the plate gently for 1 min before adding kinase. • 3. Dilute DYRK1A in Tris dilution buffer to a concentration of 0.5 ng/l (prepare fresh every time). • 4. Initiate phosphorylation by adding 10 l DYRK1A to each well.
Decant the phosphorylation solution and wash the wells three times with PBST. Add 100 μl diluted antibody 3D3 (eg. 2˜3K dilution of 1.5 mg/ml stock in BSA blocking buffer) and incubate for 1 hr at room temperature.
Decant the primary antibody solution and wash the wells three times with PBST. Add 100 μl diluted AP-conjugated anti-mouse IgG (5K dilution of anti-mouse IgG-AP in BSA blocking buffer) and incubate for 1 hr at room temperature.
Color Development and Detection.
Decant the secondary antibody and wash the wells extensively (3-4 times) with AP buffer (10 mM Tris-HCl, pH 9.5, 10 mM NaCl, and 5 mM MgCl2). Add 100 μl p-nitrophenyl phosphate solution (1 mg/ml in AP buffer or 1 PNPP tablet per 5 ml 1× diethanolamine substrate buffer) and incubate the plate at 30° C. Yellow color should start appearing in a few minutes. OD at 405 nm usually can be read between 10-30 min.
With `Oc1cc(O)c2c(c1)O[C@@H](c1cc(O)c(O)c(O)c1)[C@H](O)C2` [(2S,3R)-2-(3,4,5-trihydroxyphenyl)chroman-3,5,7-triol], the pIC50 (in general, −log10 of the IC50, conventionally taken in molar units) was below 4.00.
On the same count and under the same terms, under `Oc1cc(O)c2c(c1)O[C@@H](c1ccc(O)c(O)c1)[C@H](O)C2` [(2S,3R)-2-(3,4-dihydroxyphenyl)chroman-3,5,7-triol] stands below 4.00; under `COc1c(O)cc([C@H]2Oc3cc(O)cc(O)c3C[C@H]2OC(=O)c2cc(O)c(O)c(O)c2)cc1O` [(2R,3R)-2-(3,5-dihydroxy-4-methoxyphenyl)-5,7-dihydroxychroman-3-yl 3,4,5-trihydroxybenzoate], 5.24; under `COc1c(O)cc(C(=O)O[C@@H]2Cc3c(O)cc(O)cc3O[C@@H]2c2cc(O)c(O)c(O)c2)cc1O` [(2R,3R)-5,7-dihydroxy-2-(3,4,5-trihydroxyphenyl)chroman-3-yl 3,5-dihydroxy-4-methoxybenzoate], 4.60.
For `O=C(O[C@@H]1Cc2c(O)cc(O)cc2O[C@@H]1c1ccc(O)c(O)c1)c1cc(O)c(O)c(O)c1` [(2R,3R)-2-(3,4-dihydroxyphenyl)-5,7-dihydroxychroman-3-yl 3,4,5-trihydroxybenzoate], the pIC50 was 6.28.
The same measure, in the same setting: under `Oc1cc(O)c2c(c1)O[C@H](c1cc(O)c(O)c(O)c1)[C@H](O)C2` [(2R,3R)-2-(3,4,5-trihydroxyphenyl)chroman-3,5,7-triol] stands below 4.00.
Still for that read-out and setting: under `Oc1cc(O)c2c(c1)O[C@H](c1ccc(O)c(O)c1)[C@H](O)C2` [(2R,3R)-2-(3,4-dihydroxyphenyl)chroman-3,5,7-triol] stands below 4.00; under `O=C(O[C@@H]1Cc2c(O)cc(O)cc2O[C@H]1c1ccc(O)c(O)c1)c1cc(O)c(O)c(O)c1` [(2S,3R)-2-(3,4-dihydroxyphenyl)-5,7-dihydroxychroman-3-yl 3,4,5-trihydroxybenzoate], 6.74.

In another assay the target is DYRK1A (Homo sapiens, UniProt Q13627).
Experiment: not given
The following applies: non-ATP competitive DYRK1A inhibitor; Bain, J., et al., Biochem J 408 (2007); cited from earlier work.
For `O=C(O[C@@H]1Cc2c(O)cc(O)cc2O[C@@H]1c1cc(O)c(O)c(O)c1)c1cc(O)c(O)c(O)c1` [EGCG, Epigallocatechin gallate], the pIC50 is 6.48.

The next assay concerns DS patients.
Experiment: not given
The settings on record: randomized, double-blinded placebo-controlled study, De la Torre et al. 2014; cited from earlier work.
In the case of `O=C(O[C@@H]1Cc2c(O)cc(O)cc2O[C@@H]1c1cc(O)c(O)c(O)c1)c1cc(O)c(O)c(O)c1` [EGCG, Epigallocatechin gallate], the “memory recognition, working memory and quality of life” value was “improved memory recognition, working memory and quality of life”.
